57 molecules from patent US4393225A, “AI-77 Compounds and pharmaceutically acceptable salts thereof” (Asahi Kasei Kogyo Kabushiki Kaisha, priority 1979, dated 1983) can be followed below.

In the first experiment the test system is ulcer. Kind of experiment: Anti-ulcer test (restraint and water immersion ulcer in rats, i.p.). The experiment is classed as in vivo, Male Wistar rats. The settings on record: Rattus norvegicus, ip, read-out: % Inhibition of Ulcer. Here is the method: The anti-ulcer and anti-edema activity of the compounds was evaluated in efficacy tests described below.
Male Wistar rats weighing about 150 g on average were not fed for 24 hours before the test. Then a solution or suspension of a predetermined concentration of the test compound in physiological saline was administered to them intraperitoneally. One hour after the administration,each rat was restrained in a net cage and submerged in a water both (21° C.) from the tail to xiphistrenun for 6 hours. Test animals were then killed (by dislocation of the cervical vertebrae), the stomach was removed and incised along the curvatura ventriculi major, and the inside wall of the stomach was pathologically examined under microscopic observation. Rats in which the occurrence of an ulceration was substantially not observed were rated O, while others were rated 0.5, 1, 2 or 3, depending on the severity of the ulcer development. The percent inhibition of ulcer was calculated by the following formula: [formula]
Take `CCCCC(=O)NC1CC(=O)OC1C(O)C(=O)NC(CC(C)C)C1Cc2cccc(O)c2C(=O)O1` (stereo not drawn) [IIIa-1-6]: the inhibition in vivo at 50 mg/kg is 66%. The same measure, in the same setting: to `CC(C)CC(=O)NC1CC(=O)OC1C(O)C(=O)NC(CC(C)C)C1Cc2cccc(O)c2C(=O)O1` (stereo not drawn) [IIIa-1-5] belongs 66%.

The same experiment, now with this note: Rattus norvegicus, ip; 25 mg/kg i.p.; read-out: % Inhibition of Ulcer.
Take `Cc1ccc(NC(=O)CC(N)C(O)C(O)C(=O)NC(CC(C)C)C2Cc3cccc(O)c3C(=O)O2)cc1` (stereo not drawn) [VII-1-43]: the inhibition in vivo at 25 mg/kg was found to be 94%.

For `CCCCOc1cccc2c1C(=O)OC(C(CC(C)C)NC(=O)C(OC)C(O)C(CC(N)=O)NC(C)=O)C2` (stereo not drawn) [VII-34-1], the inhibition in vivo at 25 mg/kg was 66%.

With `CCOc1cccc2c1C(=O)OC(C(CC(C)C)NC(=O)C(OC(C)=O)C(O)C(CC(N)=O)NC)C2` (stereo not drawn) [VII-24-1], the inhibition in vivo at 25 mg/kg was 66%. Still for that read-out and setting: to `CCCCOC(C(=O)NC(CC(C)C)C1Cc2cccc(OC)c2C(=O)O1)C(O)C(N)CC(N)=O` (stereo not drawn) [VII-7-1] belongs 89%; to `CC(C)CC(NC(=O)C(O)C(O)C(N)CC(=O)NCc1ccco1)C1Cc2cccc(O)c2C(=O)O1` (stereo not drawn) [VII-1-14], 89%; to `CC(=O)OC(C)CCNC(=O)CC(N)C(O)C(O)C(=O)NC(CC(C)C)C1Cc2cccc(O)c2C(=O)O1` (stereo not drawn) [VII-1-28], 94%. Same read-out and setting: to `COc1cccc2c1C(=O)OC(C(CC(C)C)NC(=O)C(O)C(O)C(N)CC(N)=O)C2` (stereo not drawn) [VII-5-1] belongs 78%; to `CC(=O)Oc1cccc2c1C(=O)OC(C(CC(C)C)NC(=O)C(O)C(O)C(CC(N)=O)NCC(C)C)C2` (stereo not drawn) [VII-13-2], 83%.

Consider `CCC(=O)CNC(=O)CC(N)C(O)C(O)C(=O)NC(CC(C)C)C1Cc2cccc(O)c2C(=O)O1` (stereo not drawn) [VII-1-21], for which the inhibition in vivo at 25 mg/kg turned out to be 100%.

The same experiment, now with this note: Rattus norvegicus, ip; 50 mg/kg i.p.; read-out: % Inhibition of Ulcer.
Take `CC(C)CNC1CC(=O)OC1C(O)C(=O)NC(CC(C)C)C1Cc2cccc(OCC(C)C)c2C(=O)O1` (stereo not drawn) [IIIa-22-4]: the inhibition in vivo at 50 mg/kg amounted to 94%. Still for that read-out and setting: to `CCCCCCCCCCCCOc1cccc2c1C(=O)OC(C(CC(C)C)NC(=O)C(O)C1OC(=O)CC1NC(C)=O)C2` (stereo not drawn) [IIIa-5-9] belongs 33%; to `COC(=O)c1ccc(C(=O)NC2CC(=O)OC2C(O)C(=O)NC(CC(C)C)C2Cc3cccc(O)c3C(=O)O2)cc1` (stereo not drawn) [IIIa-1-50], 66%; to `CCCCCCCCCCCCCCCCCC(=O)NC1CC(=O)OC1C(OC(C)=O)C(=O)NC(CC(C)C)C1Cc2cccc(OC(C)=O)c2C(=O)O1` (stereo not drawn) [IIIa-3-4], 22%. Still for that read-out and setting: to `CC(=O)Oc1cccc2c1C(=O)OC(C(CC(C)C)NC(=O)C(OC(C)=O)C1OC(=O)CC1NCC(Cl)(Cl)Cl)C2` (stereo not drawn) [IIIa-20-10] belongs 56%. For the molecule `CCCCCCCCC=CCCCCCCCC(=O)NC1CC(=O)OC1C(O)C(=O)NC(CC(C)C)C1Cc2cccc(OC(C)=O)c2C(=O)O1` (stereo not drawn) [IIIa-4-4], the inhibition in vivo at 50 mg/kg turned out to be 33%.

Take `CCNC(CC(=O)O)C(O)C(OC(=O)CC)C(=N)NC(CC(C)C)C1Cc2cccc(OC(=O)C(C)C)c2C(=O)O1` (stereo not drawn) [Vb-12-1]: the inhibition in vivo at 50 mg/kg stood at 56%.

`CCOc1cccc2c1C(=O)OC(C(CC(C)C)NC(=O)C(O)C1OC(=O)CC1NC(=O)C1CCCCC1=O)C2` (stereo not drawn) [IIIa-5-33]: the inhibition in vivo at 50 mg/kg worked out at 44%. As for `CCOc1cccc2c1C(=O)OC(C(CC(C)C)NC(=O)C(O)C1OC(=O)CC1NC(=O)C13CC4CC(CC(C4)C1)C3)C2` (stereo not drawn) [IIIa-5-15], the inhibition in vivo at 50 mg/kg was determined as 33%.

As to `CCOc1cccc2c1C(=O)OC(C(CC(C)C)NC(=O)C(O)C1OC(=O)CC1NC(=O)c1ccc(SC)cc1)C2` (stereo not drawn) [IIIa-5-45], the inhibition in vivo at 50 mg/kg was 33%. For the molecule `CCCCCCCCCCCCCCCCCC(=O)Oc1cccc2c1C(=O)OC(C(CC(C)C)NC(=O)C(O)C1OC(=O)CC1N)C2` (stereo not drawn) [IIIa-12-3], the inhibition in vivo at 50 mg/kg came out at 66%.

As for `CCC(=O)COc1cccc2c1C(=O)OC(C(CC(C)C)NC(=O)C(O)C1C=CC(=O)O1)C2` (stereo not drawn) [IVa-4-20], the inhibition in vivo at 50 mg/kg was determined as 44%.

For `CCCCOc1cccc2c1C(=O)OC(C(CC(C)C)NC(=O)C(OC)C1OC(=O)CC1NCC)C2` (stereo not drawn) [IIIa-24-16], the inhibition in vivo at 50 mg/kg is 56%. Still for that read-out and setting: to `CCCCCCCCCCCCCCCCCCNC1CC(=O)OC1C(OCC)C(=O)NC(CC(C)C)C1Cc2cccc(OCCCCCCC)c2C(=O)O1` (stereo not drawn) [IIIa-24-4] belongs 44%. The same measure, in the same setting: the value for `CC(C)CC(NC(=O)C(O)C1OC(=O)CC1NC(=O)C12CC3CC(CC(C3)C1)C2)C1Cc2cccc(O)c2C(=O)O1` (stereo not drawn) [IIIa-1-16] was 56%; that for `COC(C)CC(=O)NC1CC(=O)OC1C(OC(C)=O)C(=O)NC(CC(C)C)C1Cc2cccc(OC(C)=O)c2C(=O)O1` (stereo not drawn) [IIIa-3-7] was 33%. The same measure, in the same setting: the value for `CC(C)CC(NC(=O)C(O)C1OC(=O)CC1NC(=O)c1ccc2ccccc2c1)C1Cc2cccc(O)c2C(=O)O1` (stereo not drawn) [IIIa-1-15] was 44%; that for `CCCCCSCCNC1CC(=O)OC1C(O)C(=O)NC(CC(C)C)C1Cc2cccc(O)c2C(=O)O1` (stereo not drawn) [IIIa-18-39] was 94%. As to `CCCCOc1cccc2c1C(=O)OC(C(CC(C)C)NC(=N)C(OCCCC)C(O)C(N)CC(=O)O)C2` (stereo not drawn) [Vb-7-2], the inhibition in vivo at 50 mg/kg is 66%. The same measure, in the same setting: to `COc1cccc2c1C(=O)OC(C(CC(C)C)NC(=O)C(O)C1OC(=O)CC1NC(=O)C(Cl)(Cl)Cl)C2` (stereo not drawn) [IIIa-5-7] belongs 44%; to `CCCCCCCCOc1cccc2c1C(=O)OC(C(CC(C)C)NC(=O)C(O)C1OC(=O)CC1NCCCCCCC)C2` (stereo not drawn) [IIIa-22-12], 72%; to `CCNC1CC(=O)OC1C(OC(=O)CC)C(=O)NC(CC(C)C)C1Cc2cccc(O)c2C(=O)O1` (stereo not drawn) [IIIa-19-9], 66%.

With `CC(C)CC(NC(=NCCN1CCCCC1)C(O)C(O)C(N)CC(=O)O)C1Cc2cccc(O)c2C(=O)O1` (stereo not drawn) [Vb-1-45], the inhibition in vivo at 50 mg/kg is 94%. Same read-out and setting: to `COc1ccc(COc2cccc3c2C(=O)OC(C(CC(C)C)NC(=O)C(O)C2OC(=O)CC2N)C3)cc1` (stereo not drawn) [IIIa-13-23] belongs 72%; to `CC(=O)Oc1cccc2c1C(=O)OC(C(CC(C)C)NC(=O)C(OC(C)=O)C1OC(=O)CC1NC(=O)CC(C)C)C2` (stereo not drawn) [IIIa-3-3], 33%. On the same count and under the same terms, to `CCNC1CC(=O)OC1C(O)C(=O)NC(CC(C)C)C1Cc2cccc(OC(C)=O)c2C(=O)O1` (stereo not drawn) [IIIa-21-1] belongs 78%; to `C/C=C/C(=O)NC1CC(=O)OC1C(O)C(=O)NC(CC(C)C)C1Cc2cccc(OCC)c2C(=O)O1` (stereo not drawn) [IIIa-5-53], 33%. On the same count and under the same terms, to `CCOC(C(=N)NC(CC(C)C)C1Cc2cccc(O)c2C(=O)O1)C(O)C(N)CC(=O)O` (stereo not drawn) [Vb-8-3] belongs 78%; to `CCOc1cccc2c1C(=O)OC(C(CC(C)C)NC(=O)C(O)C1OC(=O)CC1NC(=O)Cc1ccccc1)C2` (stereo not drawn) [IIIa-5-20], 44%. On to `CCCCCc1ccc(C(=O)NC2CC(=O)OC2C(O)C(=O)NC(CC(C)C)C2Cc3cccc(OCC)c3C(=O)O2)cc1` (stereo not drawn) [IIIa-5-73], for which the inhibition in vivo at 50 mg/kg came to 44%. Same read-out and setting: the value for `COc1ccc(C(=O)Oc2cccc3c2C(=O)OC(C(CC(C)C)NC(=O)C(O)C2C=CC(=O)O2)C3)cc1` (stereo not drawn) [IVa-3-16] was 33%; that for `CCCCCCCCCCCCCCCCCCOc1cccc2c1C(=O)OC(C(CC(C)C)NC(=O)C(O)C1OC(=O)CC1NCCCC)C2` (stereo not drawn) [IIIa-22-78] was 72%. Still for that read-out and setting: to `CCC(=O)Oc1cccc2c1C(=O)OC(C(CC(C)C)NC(=O)C(OC)C1OC(=O)CC1N)C2` (stereo not drawn) [IIIa-17-5] belongs 44%. Same read-out and setting: the value for `CCCCNC(CC(=O)O)C(O)C(O)C(=N)NC(CC(C)C)C1Cc2cccc(O)c2C(=O)O1` (stereo not drawn) [Vb-10-2] was 100%; that for `CC(C)CC(NC(=O)C(O)C1C=CC(=O)O1)C1Cc2cccc(OC(=O)C(Cl)(Cl)Cl)c2C(=O)O1` (stereo not drawn) [IVa-3-13] was 44%; that for `CC(C)CC(NC(=O)C(O)C1OC(=O)CC1NC(=O)Cc1cccnc1)C1Cc2cccc(O)c2C(=O)O1` (stereo not drawn) [IIIa-1-58] was 66%. Regarding `CC(C)CC(NC(=O)C(O)C1OC(=O)CC1N)C1Cc2cccc(OCc3ccc4ccccc4c3)c2C(=O)O1` (stereo not drawn) [IIIa-13-17], the inhibition in vivo at 50 mg/kg was found to be 72%. Turning to `CCCCCCCCC=CCCCCCCCCOc1cccc2c1C(=O)OC(C(CC(C)C)NC(=O)C(O)C1OC(=O)CC1NC(C)=O)C2` (stereo not drawn) [IIIa-5-8], the inhibition in vivo at 50 mg/kg was determined as 33%. Still for that read-out and setting: to `COC(C(=N)NC(CC(C)C)C1Cc2cccc(O)c2C(=O)O1)C(O)C(N)CC(=O)O` (stereo not drawn) [Vb-8-1] belongs 78%.

`CCCCCCCCCCCCCCCCCC(=O)NC1CC(=O)OC1C(OCC)C(=O)NC(CC(C)C)C1Cc2cccc(OCCCCCCC)c2C(=O)O1` (stereo not drawn) [IIIa-7-4]: the inhibition in vivo at 50 mg/kg turned out to be 22%. The same measure, in the same setting: to `CC(C)CCc1ccc(C(C)C(=O)NC2CC(=O)OC2C(O)C(=O)NC(CC(C)C)C2Cc3cccc(O)c3C(=O)O2)cc1` (stereo not drawn) [IIIa-1-53] belongs 56%. On the same count and under the same terms, the value for `CCCCCCCCC=CCCCCCCCCOc1cccc2c1C(=O)OC(C(CC(C)C)NC(=O)C(O)C1C=CC(=O)O1)C2` (stereo not drawn) [IVa-4-7] was 33%; that for `CCCCCSc1ccc(C(=O)NC2CC(=O)OC2C(O)C(=O)NC(CC(C)C)C2Cc3cccc(O)c3C(=O)O2)cc1` (stereo not drawn) [IIIa-1-47] was 56%; that for `CC(C)CC(NC(=O)C(O)C1OC(=O)CC1NCc1ccccc1)C1Cc2cccc(O)c2C(=O)O1` (stereo not drawn) [IIIa-18-14] was 89%.

With `CCOc1cccc2c1C(=O)OC(C(CC(C)C)NC(=O)C(O)C1OC(=O)CC1NC(=O)c1ccc(C(C)C)cc1)C2` (stereo not drawn) [IIIa-5-67], the inhibition in vivo at 50 mg/kg turned out to be 44%.

The experiment is the same for the next values; noted with them: rat, in vivo.
As for `CC(C)CC(NC(=N)C(O)C(O)C(N)CC(=O)O)C1Cc2cccc(O)c2C(=O)O1` (stereo not drawn) [AI-77-A], the “anti-ulcer activity (in words)” value is listed as “high anti-ulcer activity”.
